Experimental data as given in PubChem BioAssay (NCI).
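A five-concentration, 48-hour dose response in 96-well plates underlies each endpoint, interpolated linearly between surrounding concentrations. At the TGI there is no net growth.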

Experiments:
Assay in all cases: NCI tumour cell line growth inhibition, 48 h
RXF 393 renal = test system: RXF 393 renal
SN12C renal = test system: SN12C renal
SF-539 CNS = test system: SF-539 CNS
OVCAR-8 ovarian = test system: OVCAR-8 ovarian
LOX IMVI melanoma = test system: LOX IMVI melanoma
NCI-H226 lung = test system: NCI-H226 lung
HT29 colon = test system: HT29 colon
CAKI-1 renal = test system: CAKI-1 renal
NCI/ADR-RES ovarian = test system: NCI/ADR-RES ovarian
A498 renal = test system: A498 renal
SK-MEL-5 melanoma = test system: SK-MEL-5 melanoma
MDA-MB-435 = test system: MDA-MB-435
NCI-H23 lung = test system: NCI-H23 lung
RPMI-8226 leukemia = test system: RPMI-8226 leukemia
SW-620 colon = test system: SW-620 colon
OVCAR-3 ovarian = test system: OVCAR-3 ovarian
UACC-257 melanoma = test system: UACC-257 melanoma
HCC-2998 colon = test system: HCC-2998 colon
UACC-62 melanoma = test system: UACC-62 melanoma
SK-OV-3 ovarian = test system: SK-OV-3 ovarian
EKVX NSCLC = test system: EKVX NSCLC
KM12 colon = test system: KM12 colon
COLO 205 colon = test system: COLO 205 colon
OVCAR-4 ovarian = test system: OVCAR-4 ovarian
SF-295 CNS = test system: SF-295 CNS
786-0 renal = test system: 786-0 renal
HL-60(TB) leukemia = test system: HL-60(TB) leukemia
HOP-62 NSCLC = test system: HOP-62 NSCLC
MCF7 breast = test system: MCF7 breast
OVCAR-5 ovarian = test system: OVCAR-5 ovarian
SK-MEL-28 melanoma = test system: SK-MEL-28 melanoma
UO-31 renal = test system: UO-31 renal
M14 melanoma = test system: M14 melanoma
SK-MEL-2 melanoma = test system: SK-MEL-2 melanoma
SNB-75 CNS = test system: SNB-75 CNS
U251 CNS = test system: U251 CNS
HOP-92 NSCLC = test system: HOP-92 NSCLC
PC-3 prostate = test system: PC-3 prostate
NCI-H460 lung = test system: NCI-H460 lung
SNB-19 CNS = test system: SNB-19 CNS
SF-268 CNS = test system: SF-268 CNS
CCRF-CEM leukemia = test system: CCRF-CEM leukemia
T-47D breast = test system: T-47D breast
HCT-15 colon = test system: HCT-15 colon
HCT-116 colon = test system: HCT-116 colon
ACHN renal = test system: ACHN renal
TK-10 renal = test system: TK-10 renal
IGROV1 ovarian = test system: IGROV1 ovarian
DU-145 prostate = test system: DU-145 prostate
K-562 leukemia = test system: K-562 leukemia
MOLT-4 leukemia = test system: MOLT-4 leukemia
MDA-MB-231 breast = test system: MDA-MB-231 breast
BT-549 breast = test system: BT-549 breast
MDA-N = test system: MDA-N
HS 578T breast = test system: HS 578T breast
A549 NSCLC = test system: A549 NSCLC
MALME-3M melanoma = test system: MALME-3M melanoma
NCI-H522 lung = test system: NCI-H522 lung

Oc1ccc2c(c1)OCC1c3ccccc3OC21 (stereo not given)
TGI (RXF 393 renal): > 100 µM | TGI (SN12C renal): > 100 µM | TGI (SF-539 CNS): > 100 µM | TGI (OVCAR-8 ovarian): > 100 µM | TGI (LOX IMVI melanoma): > 100 µM | TGI (NCI-H226 lung): > 100 µM | TGI (HT29 colon): > 100 µM | TGI (CAKI-1 renal): > 100 µM | TGI (NCI/ADR-RES ovarian): > 100 µM | TGI (A498 renal): > 100 µM | TGI (SK-MEL-5 melanoma): > 100 µM | TGI (MDA-MB-435): > 100 µM | TGI (NCI-H23 lung): > 100 µM | TGI (RPMI-8226 leukemia): > 100 µM | TGI (SW-620 colon): > 100 µM | TGI (OVCAR-3 ovarian): > 100 µM | TGI (UACC-257 melanoma): > 100 µM | TGI (HCC-2998 colon): > 100 µM | TGI (UACC-62 melanoma): > 100 µM | TGI (SK-OV-3 ovarian): > 100 µM | TGI (EKVX NSCLC): 86.7 µM | TGI (KM12 colon): > 100 µM | TGI (COLO 205 colon): > 100 µM | TGI (OVCAR-4 ovarian): > 100 µM | TGI (SF-295 CNS): > 100 µM | TGI (786-0 renal): > 100 µM | TGI (HL-60(TB) leukemia): 83.4 µM | TGI (HOP-62 NSCLC): > 100 µM | TGI (MCF7 breast): > 100 µM | TGI (OVCAR-5 ovarian): > 100 µM | TGI (SK-MEL-28 melanoma): > 100 µM | TGI (UO-31 renal): > 100 µM | TGI (M14 melanoma): > 100 µM | TGI (SK-MEL-2 melanoma): > 100 µM | TGI (SNB-75 CNS): > 100 µM | TGI (U251 CNS): > 100 µM | TGI (HOP-92 NSCLC): > 100 µM | TGI (PC-3 prostate): > 100 µM | TGI (NCI-H460 lung): > 100 µM | TGI (SNB-19 CNS): > 100 µM | TGI (SF-268 CNS): > 100 µM | TGI (CCRF-CEM leukemia): > 100 µM | TGI (T-47D breast): > 100 µM | TGI (HCT-15 colon): > 100 µM | TGI (HCT-116 colon): > 100 µM | TGI (ACHN renal): > 100 µM | TGI (TK-10 renal): > 100 µM | TGI (IGROV1 ovarian): > 100 µM | TGI (DU-145 prostate): > 100 µM | TGI (K-562 leukemia): > 100 µM | TGI (MOLT-4 leukemia): 65.2 µM | TGI (MDA-MB-231 breast): > 100 µM | TGI (BT-549 breast): > 100 µM | TGI (MDA-N): > 100 µM | TGI (HS 578T breast): > 100 µM

O=S(=O)(O)c1ccc(N=Nc2ccc(N=Nc3c(O)c(S(=O)(=O)O)cc4cc(S(=O)(=O)O)ccc34)cc2)cc1
TGI (A549 NSCLC): > 100 µM | TGI (RXF 393 renal): > 100 µM | TGI (SN12C renal): > 100 µM | TGI (SF-539 CNS): > 100 µM | TGI (OVCAR-8 ovarian): > 100 µM | TGI (NCI-H226 lung): > 100 µM | TGI (HT29 colon): > 100 µM | TGI (CAKI-1 renal): > 100 µM | TGI (NCI/ADR-RES ovarian): > 100 µM | TGI (SK-MEL-5 melanoma): > 100 µM | TGI (MDA-MB-435): > 100 µM | TGI (NCI-H23 lung): > 100 µM | TGI (RPMI-8226 leukemia): > 100 µM | TGI (SW-620 colon): > 100 µM | TGI (OVCAR-3 ovarian): > 100 µM | TGI (UACC-257 melanoma): > 100 µM | TGI (HCC-2998 colon): > 100 µM | TGI (UACC-62 melanoma): > 100 µM | TGI (SK-OV-3 ovarian): > 100 µM | TGI (EKVX NSCLC): > 100 µM | TGI (KM12 colon): > 100 µM | TGI (COLO 205 colon): > 100 µM | TGI (OVCAR-4 ovarian): > 100 µM | TGI (SF-295 CNS): > 100 µM | TGI (786-0 renal): > 100 µM | TGI (MALME-3M melanoma): > 100 µM | TGI (HL-60(TB) leukemia): > 100 µM | TGI (HOP-62 NSCLC): > 100 µM | TGI (MCF7 breast): > 100 µM | TGI (OVCAR-5 ovarian): > 100 µM | TGI (SK-MEL-28 melanoma): > 100 µM | TGI (UO-31 renal): > 100 µM | TGI (M14 melanoma): > 100 µM | TGI (SK-MEL-2 melanoma): > 100 µM | TGI (U251 CNS): > 100 µM | TGI (HOP-92 NSCLC): > 100 µM | TGI (PC-3 prostate): > 100 µM | TGI (NCI-H460 lung): > 100 µM | TGI (NCI-H522 lung): > 100 µM | TGI (SNB-19 CNS): > 100 µM | TGI (SF-268 CNS): > 100 µM | TGI (CCRF-CEM leukemia): > 100 µM | TGI (T-47D breast): > 100 µM | TGI (HCT-15 colon): > 100 µM | TGI (HCT-116 colon): > 100 µM | TGI (ACHN renal): > 100 µM | TGI (TK-10 renal): > 100 µM | TGI (IGROV1 ovarian): > 100 µM | TGI (DU-145 prostate): > 100 µM | TGI (K-562 leukemia): > 100 µM | TGI (MOLT-4 leukemia): > 100 µM | TGI (MDA-MB-231 breast): > 100 µM | TGI (BT-549 breast): > 100 µM | TGI (MDA-N): > 100 µM | TGI (HS 578T breast): > 100 µM

Cc1ccc(Nc2nc(C)c(C(=O)CC(=O)C(=O)Nc3c(C)cccc3C(C)(C)C)s2)cc1
TGI (A549 NSCLC): > 100 µM | TGI (RXF 393 renal): > 100 µM | TGI (SN12C renal): > 100 µM | TGI (SF-539 CNS): > 100 µM | TGI (OVCAR-8 ovarian): > 100 µM | TGI (LOX IMVI melanoma): > 100 µM | TGI (NCI-H226 lung): > 100 µM | TGI (HT29 colon): > 100 µM | TGI (CAKI-1 renal): > 100 µM | TGI (NCI/ADR-RES ovarian): > 100 µM | TGI (A498 renal): > 100 µM | TGI (SK-MEL-5 melanoma): > 100 µM | TGI (MDA-MB-435): > 100 µM | TGI (NCI-H23 lung): > 100 µM | TGI (RPMI-8226 leukemia): > 100 µM | TGI (SW-620 colon): > 100 µM | TGI (OVCAR-3 ovarian): > 100 µM | TGI (UACC-257 melanoma): > 100 µM | TGI (HCC-2998 colon): > 100 µM | TGI (UACC-62 melanoma): > 100 µM | TGI (SK-OV-3 ovarian): > 100 µM | TGI (EKVX NSCLC): > 100 µM | TGI (KM12 colon): > 100 µM | TGI (COLO 205 colon): > 100 µM | TGI (OVCAR-4 ovarian): > 100 µM | TGI (SF-295 CNS): > 100 µM | TGI (786-0 renal): > 100 µM | TGI (HL-60(TB) leukemia): > 100 µM | TGI (HOP-62 NSCLC): > 100 µM | TGI (MCF7 breast): > 100 µM | TGI (OVCAR-5 ovarian): > 100 µM | TGI (UO-31 renal): > 100 µM | TGI (M14 melanoma): > 100 µM | TGI (SK-MEL-2 melanoma): > 100 µM | TGI (U251 CNS): > 100 µM | TGI (HOP-92 NSCLC): > 100 µM | TGI (PC-3 prostate): > 100 µM | TGI (NCI-H460 lung): > 100 µM | TGI (NCI-H522 lung): > 100 µM | TGI (SNB-19 CNS): > 100 µM | TGI (SF-268 CNS): > 100 µM | TGI (CCRF-CEM leukemia): > 100 µM | TGI (T-47D breast): > 100 µM | TGI (HCT-15 colon): > 100 µM | TGI (HCT-116 colon): > 100 µM | TGI (ACHN renal): > 100 µM | TGI (TK-10 renal): > 100 µM | TGI (IGROV1 ovarian): > 100 µM | TGI (DU-145 prostate): > 100 µM | TGI (K-562 leukemia): > 100 µM | TGI (MOLT-4 leukemia): > 100 µM | TGI (MDA-MB-231 breast): > 100 µM | TGI (BT-549 breast): > 100 µM | TGI (MDA-N): > 100 µM | TGI (HS 578T breast): > 100 µM
